Experiments:
db/db mice [1] = experiment: Biochemical and metabolic indicators in db/db mice, 56 d administration; assay type: in vivo; conditions: Losartan 15 mg/kg/d, TMP 5.0 mg/kg, OLB-3 13.32 mg/kg, n=6; for Urine albumin/creatinine: once/d for 56 d, mean, SEM
db/db mice [2] = experiment: Glucose and lipid metabolism in db/db mice, 56 d administration; assay type: in vivo; conditions: TMP 5.0 mg/kg, OLB-3 13.32 mg/kg, mean±SEM, n=6
Method: (§1) Mice of a normal control group (WT) and model mice were given normal saline 10 ml/kg/d, Losartan 15 mg/kg/d, TMP (5.0 mg/kg, 0.037 mmol/kg), and OLB-3 (13.32 mg/kg, 0.037 mmol/kg), at a volume of 10 mL/kg, once/d, for continuous administration of 56 d, blood lipids and blood glucose related indexes were measured after blood collection. Data were presented as mean±SEM; n=6 per group.

SH-SY5Y cells = experiment: MTT assay of SH-SY5Y cell death caused by OGD; assay type: cell-based; conditions: 4 h OGD, FIG. 1
Method: A neuroprotective effect of tetramethylpyrazine (TMP) and derivatives thereof was evaluated by MTT assay. Cells were incubated, cells in the logarithmic growth phase were collected, a concentration of a cell suspension was adjusted, an MTT-containing medium was added after dosing treatment and 4 h of incubation with OGD, incubation was conducted for 4 h, the medium in the wells was carefully removed, and 150 μl of dimethyl sulfoxide (DMSO) was added to each well, followed by shaking at a low speed for 10 min on a shaker to fully dissolve crystals, and an absorbance value of each well was measured at an OD (absorbance) value of 490 nm of an enzyme-linked immunosorbent assay instrument (at the same time, a zero adjustment well (medium, MTT, DMSO) and a control well (cells, a drug dissolution medium with the same concentration, medium, MTT, DMSO) were set). Data were presented as mean±SEM; n=8 per group.

5*FAD mice [3] = experiment: Y-maze in 5*FAD mice; assay type: in vivo; conditions: 6-month-old 5*FAD mice treated 3 months; 2.63 and 13.32 mg/kg; FIG. 4
Method: (§2) 6-month-old 5*FAD mice were treated with OLB-3 for 3 months, and novel object recognition and Y-maze behavior were measured. Novel object recognition: during a training phase, the mice were exposed in a chamber to become familiar with two identical objects (A+A) for 5 min; during a testing phase, one of the familiar objects was replaced with another novel object (A+B), and the mice were put back in the chamber to detect probe objects for 5 min, while recording video and tracking the mice in real time. Probing was defined as a mouse with its nose pointed towards the object, sniffing or touching with its nose, and a distance of ≤2 cm was recorded from the nose to the object. A discriminant index (DI) is used to explore each object, and a calculation method thereof was as follows: (exploration time for new object−exploration time for old object)/(exploration time for new object+exploration time for old object)*100. Y-maze: an animal was placed at an end of one arm, and the sequence of the animals entering into each arm was recorded within 10 min. […] The 5*FAD mice were treated with low dosage (2.63 mg/kg, 0.007 mmol/kg, the same below) and high dosage (13.32 mg/kg, 0.037 mmol/kg, the same below) of the OLB-3 separately. Data were presented as mean±SEM; n=9-10 per group.

[4] = test system: SH-SY5Y neuroblastoma cells; experiment: LPS-induced oxidative stress-related proteins in differentiated SH-SY5Y cells (ELISA); assay type: cell-based; conditions: 24 h, mean±SEM, n=8
Method: (§3) The SH-SY5Y cells were recovered and incubated, and the cells in the logarithmic growth phase were taken. After 24 h of incubation, SH-SY5Y neuroblastoma cells were treated with 1 μM all-trans retinoic acid to induce differentiation, and then inoculated into a 6-well culture dish for 24 h of incubation. Then, 0.2 μM (L) or 1 μM (H) OLB-3 and 1 μg/mL LPS were added to the medium, and treated for 24 h, a supernatant medium was aspirated, and changes of inflammatory factors and oxidative stress-related proteins were measured by an ELISA kit. Data were presented as mean±SEM; n=8 per group.

5*FAD mice [5] = experiment: Novel object recognition in 5*FAD mice; assay type: in vivo; conditions: 6-month-old 5*FAD mice treated 3 months; 2.63 and 13.32 mg/kg; FIG. 3
Method: as §2

[6] = test system: SH-SY5Y neuroblastoma cells; experiment: LPS-induced inflammatory factors in differentiated SH-SY5Y cells (ELISA); assay type: cell-based; conditions: 24 h, mean±SEM, n=8; for TNF-alpha: supernatant
Method: as §3

db/db mice [7] = experiment: Urinary protein level in db/db mice; assay type: in vivo; conditions: OLB-3 13.32 mg/kg once/d for 56 d, FIG. 2
Method: as §1, with “10” for “15”, “m/kg,” for “mL/kg,”, “urine protein levels” for “blood lipids and blood glucose related indexes”, “urine” for “blood”

[8] = test system: 6-OHDA Parkinson's disease rats; experiment: APO-induced rotations in 6-OHDA Parkinson's disease rats; assay type: in vivo; conditions: APO-induced 6-OHDA rats, 2 weeks of treatment; levodopa 25 mg/kg; FIG. 5
Excerpt: There was no rotations in a sham-operated group, and there was no significant difference between the groups injected with 6-OHDA, with about 180 rotations. […] Data were presented as mean±SEM; n=10 per group.

ALS (SOD-G93A) mice [9] = experiment: Limb grip force test in ALS transgenic mice; assay type: in vivo; conditions: riluzole 5 mg/kg, FIG. 7
Method: The limb grip force test is used directly to assess muscle strength of mice and the incidence of mice. […] After the start of administration, the grip force of the mice was tested every two weeks, and the measurement was repeated three times for each mouse, and the maximum value among the three results was taken as a maximum grip force of the mice. […] Data were presented as mean±SEM; n=10 per group.

ALS (SOD-G93A) mice [10] = experiment: Pole climbing test in ALS transgenic mice; assay type: in vivo; conditions: riluzole 5 mg/kg, FIG. 6
Excerpt: The pole climbing test is generally used to evaluate a movement coordination ability, movement delay of the limbs in mice, and muscle strength. A homemade wooden pole about 50 cm long and about 1 cm in diameter was wrapped with medical gauze to increase friction of the wooden pole. The wooden pole was put vertically on a horizontal table, the mouse tail was grabbed such that the mouse head was facing down, with limbs grabbing a top of the pole; the timer was started after releasing the mouse tail, and it was ensured that the mouse crawled downward without external force, and the time was recorded for the mouse to climb from the top of the pole to a bottom platform (a standard was that mouse hind limbs were landed on the ground). […] The average value of the mouse's three pole climbing times was calculated as the final pole climbing time. […] Data were presented as mean±SEM; n=10 per group.

[11] = Table 3, once/d for 56 d, Losartan 15 mg/kg/d
[12] = once/d for 56 d, Losartan 15 mg/kg/d
[13] = (H) high concentration (OLB-3 1 μM) + 1 μg/mL LPS
[14] = (L) low concentration (OLB-3 0.2 μM) + 1 μg/mL LPS

For `CCCCc1nc(Cl)c(CO)n1Cc1ccc(-c2ccccc2-c2nn[nH]n2)cc1` [Losartan, reference compound], the Creatinine (db/db mice [1]; Table 4, once/d for 56 d) was 42.12 ± 1.72(c) μmol/L, the Urine albumin/creatinine (db/db mice [1]) was 582.74 ± 97.82(c) mg/g and the Creatinine (db/db mice [2]; [11]) was 42.12 ± 1.72(c) μmol/L. The Total cholesterol (db/db mice [2]; [12]) was 6.76 ± 0.46(c) mM.

In the case of `Cc1nc(C)c(C(=O)OCOC(=O)OCCc2ccc(O)cc2)nc1C` [OLB-3], the “death of SH-SY5Y cells caused by OGD (MTT)” value (SH-SY5Y cells) is reported as “significantly reduce the death of SH-SY5Y cells caused by OGD”, the “time ratio in a novel different arm” value (5*FAD mice [3]) is reported as “significantly increase a time ratio in a novel different arm” and the GSH-Px [4, 13] is reported as 17.51 ± 1.17(c) umol/mg. The MDA [4, 13] was 6.71 ± 0.51(c) nmol/mg, the SOD [4, 13] was 18.27 ± 1.02(c) nU/ml and the GSH-Px [4, 14] was 13.21 ± 1.92(c) umol/mg. The MDA [4, 14] was 11.10 ± 0.78(c) nmol/mg, the SOD [4, 14] was 14.96 ± 1.32(c) nU/ml and the Creatinine (db/db mice [1]; Table 4, once/d for 56 d) was 42.42 ± 2.73(c) μmol/L. The Urea (db/db mice [1]; Table 4, once/d for 56 d) was 7.42 ± 0.31(c) mmol/L, the Urine albumin/creatinine (db/db mice [1]) was 443.82 ± 78.34(c) mg/g and the “time ratio to explore novel objects” value (5*FAD mice [5]) was “significantly increase a time ratio to explore novel objects”. The TNF-alpha [6, 13] was 4.19 ± 0.77(c) pg/ml, the IL1 [6, 13] was 4.27 ± 0.58(c) pg/ml and the IL6 [6, 13] was 5.13 ± 0.63(c) pg/ml. For the same compound, the TNF-alpha [6, 14] was 7.34 ± 1.38(c) pg/ml, the IL1 [6, 14] was 8.76 ± 1.56(c) pg/ml and the IL6 [6, 14] was 9.34 ± 1.67(b) pg/ml. For the same compound, the urinary protein levels (db/db mice [7]) was “significantly reduced urinary protein levels”, the number of rotations [8] was “effectively reduce the number of rotations” and the limb grip force (ALS (SOD-G93A) mice [9]) was “effectively increase the limb force of mice”. The “pole climbing time / bradykinesia” value (ALS (SOD-G93A) mice [10]) was “significantly improve the symptoms of bradykinesia”, the Creatinine (db/db mice [2]; [11]) was 42.42 ± 2.73(c) μmol/L and the Urea (db/db mice [2]; [11]) was 7.42 ± 0.31(c) mmol/L. For the same compound, the Total cholesterol (db/db mice [2]; [12]) was 4.15 ± 0.18(c) mM, the Triglyceride (db/db mice [2]; [12]) was 9.61 ± 0.57(c) mg/dL and the Glucose determination (db/db mice [2]; once/d for 56 d) was 17.26 ± 1.42(c) mM. The Glycated hemoglobin (db/db mice [2]; once/d for 56 d) was 517.83 ± 47.26(c) nmol/L, the High-density lipoprotein cholesterol (db/db mice [2]; once/d for 56 d) was 1.62 ± 0.11(c) mM and the Low-density lipoprotein cholesterol (db/db mice [2]; once/d for 56 d) was 0.52 ± 0.02(c) mM.

For `Cc1nc(C)c(C)nc1C` [TMP, Tetramethylpyrazine, reference compound], the Urine albumin/creatinine (db/db mice [1]) was 661.82 ± 89.54 mg/g.

For `CN(C)C(=N)N=C(N)N` [metformin, reference compound], the Glycated hemoglobin (db/db mice [2]; once/d for 56 d) was 628.52 ± 50.59(c) nmol/L, the High-density lipoprotein cholesterol (db/db mice [2]; once/d for 56 d) was 2.19 ± 0.12(a) mM and the Low-density lipoprotein cholesterol (db/db mice [2]; once/d for 56 d) was 0.59 ± 0.02(c) mM.

For `Nc1nc2ccc(OC(F)(F)F)cc2s1` [riluzole, reference compound], the limb grip force (ALS (SOD-G93A) mice [9]) was “effectively increase the limb force of mice” and the “pole climbing time / bradykinesia” value (ALS (SOD-G93A) mice [10]) was “significantly improve the symptoms of bradykinesia”.

From US20230391732A1, “MULTI-EFFICACY PYRAZINE COMPOUND, PREPARATION METHOD AND USE THEREOF” (SHENZHEN OLIVE BIOPHARMACEUTICALS CO., LTD, priority 2020, published 2023)
